Results on three molecules are retold here after publication PMC8835884 (2022).

Assay [1] concerns TQ3/Cy3-fl (RNA, riboswitch, aminoallyl-U conjugated to TQ3 at 24; Cy3-C at 55) GGGAAGAUAUAAUCCUAAUGAUAUGGUUUGGGAGUUUCUACCAAGAGCCUUAAACUCUUGAUUAUCUUCUCUGUCGCUUUAUCCCAAAUUUUAUAAAGAGAAGACUCAUGAAU
The assay can be described thus: Cy3-TQ3 FRET quenching titration, steady-state fluorescence. To be noted: Mg2+ not stated.

The subject of assay [2] is TQ3/Cy3-apt (RNA, riboswitch, aminoallyl-U conjugated to TQ3 at 24; Cy3-C at 55) GGGAAGAUAUAAUCCUAAUGAUAUGGUUUGGGAGUUUCUACCAAGAGCCUUAAACUCUUGAUUAUCUUCCC
The assay can be described thus: Cy3-TQ3 FRET quenching titration, steady-state fluorescence, sigmoidal fit. The settings on record: 100 mM KCl, 2 mM MgCl2; 10 mM HEPES, pH 7.5; 0.4 μM RNA; apparent.

The test system of assay [3] is TQ3/Cy3-fl (RNA, riboswitch, aminoallyl-U conjugated to TQ3 at 24; Cy3-C at 55) GGGAAGAUAUAAUCCUAAUGAUAUGGUUUGGGAGUUUCUACCAAGAGCCUUAAACUCUUGAUUAUCUUCUCUGUCGCUUUAUCCCAAAUUUUAUAAAGAGAAGACUCAUGAAU
Described as above. The settings on record: 100 mM KCl, 2 mM MgCl2; 10 mM HEPES, pH 7.5; 0.4 μM RNA; apparent.

Turning to `Nc1nc2[nH]cnc2c(=O)[nH]1`, in assay [1] (tested up to 1 mM guanine), the binding entry was “no”.

For the molecule `Nc1ncnc2[nH]cnc12`, the results for the KD in assay [2] and in assay [3] were 61.833 ± 0.621 µM and 15.826 ± 0.287 µM, respectively.

`Nc1ncnc2c1ncn2[C@@H]1O[C@H](COP(=O)(O)OP(=O)(O)OP(=O)(O)O)[C@@H](O)[C@H]1O`: the binding result in assay [1] (tested up to 1 mM ATP) is recorded as “no”.
